Target: HIV-1 protease (Human immunodeficiency virus type 1 group M subtype B, UniProt P04585)
Assay: HIV-1 protease inhibitory activity
Assay type: biochemical
Details: for fold better inhibitory activity than 3i: compared with 3i

SMILES: COCCOc1c(N[C@@H](Cc2ccccc2)[C@H](O)CN(CC(C)C)S(=O)(=O)c2ccc(OC)cc2)c(=O)c1=O [Inhibitor 3b]
- loss of protease inhibitory activity relative to 3a (compared with 3a): over 4 fold

SMILES: COc1ccc(S(=O)(=O)N(CC(C)C)C[C@@H](O)[C@H](Cc2ccccc2)Nc2c(N(C)[C@H]3CCOC3)c(=O)c2=O)cc1 [Inhibitor 3g]
- potency enhancement over compound 3e (compared with 3e): 15 fold

SMILES: COc1ccc(S(=O)(=O)N(CC(C)C)C[C@@H](O)[C@H](Cc2ccccc2)Nc2c(N(C)[C@@H]3CCOC3)c(=O)c2=O)cc1 [Inhibitor 3h]
- fold more potent than 3g (compared with 3g): over 775 fold

SMILES: COc1ccc(S(=O)(=O)N(CC(C)C)C[C@@H](O)[C@H](Cc2ccccc2)Nc2c(N[C@@H]3CO[C@@H]4OCC[C@@H]43)c(=O)c2=O)cc1 [Inhibitor 3j]
- fold better inhibitory activity than 3i: ~10 fold

SMILES: COc1ccc(S(=O)(=O)N(CC(C)C)C[C@@H](O)[C@H](Cc2ccccc2)Nc2c(N(C)[C@H]3CO[C@H]4OCC[C@H]43)c(=O)c2=O)cc1 [Inhibitor 3k]
- fold better inhibitory activity than 3i: over 10 fold

From PMC6711809 (Bioorganic & medicinal chemistry letters, 2019)
